“Also recorded” adds a separate entry of the source.
How the values were obtained:
Type in all cases: cell-based
SW837 cells = assay: Label-free determination of cell proliferation, SW837 confluency, AMG510 (Example 8); conditions: for development of drug resistance / re-growth, combined with AMG510: CBP/p300 bromodomain inhibitor combined with 100 nM AMG510; for cell proliferation (SW837 confluency), drug alone: SW837 (KRAS G12C), 49 days, single drug: 1 μM Compound A, 0.2 μM Compound C, 0.2 μM CCS1477, 1 μM FT-6876, 0.2 μM GNE-781, 100 nM AMG510
Description: 2000 SW837 cells [ATCC; CCL-235, a CRC (rectal adenocarcinoma) cell line carrying a KRAS G12C mutation], were seeded into 96 well plates (Greiner BioOne 655090) one day prior to drug treatment in RPMI medium containing 10% FCS and 2 mM L-Glutamine. The next day, the wells were imaged label-free using brightfield imaging on a CELIGO Image Cytometer to determine the initial cell confluency. […] Plates were regularly imaged over weeks using brightfield mode (CELIGO Imaging Cytometer) to track cell confluency in each well over time. Growth medium and treatments were replenished twice weekly. […] Confluency was determined using CELIGO software's built-in “confluence” analysis tool in the brightfield mode.

SNU-1411 cells [1] = assay: Label-free determination of cell proliferation, SNU-1411 confluency, AMG510 (Example 6); conditions: for development of drug resistance / re-growth, combined with AMG510: CBP/p300 bromodomain inhibitor combined with 300 nM AMG510; for cell proliferation (SNU-1411 confluency), drug alone: SNU-1411 (KRAS G12C), 32 days, single drug: 1 μM Compound A, 0.2 μM Compound C, 0.2 μM CCS1477, 1 μM FT-6876, 0.2 μM GNE-781, 300 nM AMG510
Description: (§1) 2000 SNU-1411 cells [KCLB; 01411, a CRC (rectal adenocarcinoma) cell line carrying a KRAS G12C mutation], were seeded into 96 well plates (Greiner BioOne 655090) one day prior to drug treatment in RPMI medium containing 10% FCS and 2 mM L-Glutamine. The next day, the wells were imaged label-free using brightfield imaging on a CELIGO Image Cytometer to determine the initial cell confluency. […] Plates were regularly imaged over weeks using brightfield mode (CELIGO Imaging Cytometer) to track cell confluency in each well over time. Growth medium and treatments were replenished twice weekly. […] Confluency was determined using CELIGO software's built-in “confluence” analysis tool in the brightfield mode.

SNU-1411 cells [2] = assay: Label-free determination of cell proliferation, SNU-1411 confluency, MRTX849 (Example 7); conditions: for development of drug resistance / re-growth, combined with MRTX849: SNU-1411, 32 days, CBP/p300 bromodomain inhibitor combined with 300 nM MRTX849; for cell proliferation (SNU-1411 confluency), drug alone: SNU-1411 (KRAS G12C), 32 days, single drug: 1 μM Compound A, 0.2 μM Compound C, 0.2 μM CCS1477, 1 μM FT-6876, 0.2 μM GNE-781, 300 nM MRTX849
Description: as §1

NCI-H358 cells = assay: Label-free determination of cell proliferation, NCI-H358 cell number, AMG510 (Example 9)
Description: 2000 NCI-H358 cells [KCLB; 25807; a non-small cell lung cancer (NSCLC) cell line with KRAS G12C mutation] were seeded into 96 well plates (Greiner BioOne 655090) one day prior to drug treatment in RPMI medium containing 10% FCS and 2 mM L-Glutamine. The next day, the wells were imaged label-free using brightfield imaging on a CELIGO ImageCytometer to determine the initial cell number. […] The cells were regularly imaged over weeks using brightfield mode (CELIGO Imaging Cytometer) to track cell proliferation in each well over time. Growth medium and treatments were replenished twice weekly. […] Cell numbers were determined using CELIGO software's built-in “direct cell counting” analysis tool in the brightfield mode.

Structure (SMILES) | development of drug resistance / re-growth, combined with AMG510 (SW837 cells; SW837, 49 days) | development of drug resistance / re-growth, combined with AMG510 (SNU-1411 cells [1]; SNU-1411, 32 days) | development of drug resistance / re-growth, combined with MRTX849 (SNU-1411 cells [2]) | development of drug resistance / re-growth, combined with AMG510 (NCI-H358 cells; NCI-H358, >20 days, 1 μM Compound A or 200 nM Compound C combined with 100 nM AMG510) | cell proliferation (SW837 confluency), drug alone (SW837 cells) | re-growth in long-term culture, AMG510 alone (SW837 cells; SW837, 49 days, 100 nM AMG510 alone) | cell proliferation (SNU-1411 confluency), drug alone (SNU-1411 cells [1]) | re-growth in long-term culture, AMG510 alone (SNU-1411 cells [1]; SNU-1411, 32 days, 300 nM AMG510 alone) | cell proliferation (NCI-H358 cell number), drug alone (NCI-H358 cells; NCI-H358 (KRAS G12C), >20 days, single drug: 1 μM Compound A, 200 nM Compound C, 100 nM AMG510) | re-growth in long-term culture, AMG510 alone (NCI-H358 cells; NCI-H358, >20 days, 100 nM AMG510 alone) | cell proliferation (SNU-1411 confluency), drug alone (SNU-1411 cells [2])
CC(=O)N1C[C@H](c2nc(Nc3cccc(-c4cn(C)nn4)c3)cc(-c3cnccn3)n2)CC[C@@H]1C [Compound C, 1-((2S,5R)-2-methyl-5-(4-((3-(1-methyl-1H-1,2,3-triazol-4-yl)phenyl)amino)-6-(pyrazin-2-yl)pyrimidin-2-yl)piperidin-1-yl)ethan-1-one] | prevent the development of drug resistance | prevent the development of drug resistance | prevent the development of drug resistance | prevent the development of drug resistance; also recorded: completely prevented re-growth | – | – | – | – | – | – | –
C=CC(=O)N1CCN(c2nc(=O)n(-c3c(C)ccnc3C(C)C)c3nc(-c4c(O)cccc4F)c(F)cc23)[C@@H](C)C1 [AMG510] | – | – | – | – | initially prevented cell proliferation | re-grew | delayed cell proliferation initially for few days | re-grew | initially completely blocked cell proliferation | re-grew | –
CO[C@H]1CC[C@H](n2c([C@@H]3CCCC(=O)N3c3ccc(F)c(F)c3)nc3cc(-c4c(C)noc4C)ccc32)CC1 [CCS1477] | prevent the development of drug resistance | prevent the development of drug resistance | prevent the development of drug resistance | – | do not affect cell proliferation | – | do not affect cell proliferation | – | – | – | do not affect cell proliferation
CNC(=O)N1CCc2c(c(N3CCCc4cc(-c5cnn(C)c5)c(C(F)F)cc43)nn2C2CCOCC2)C1 [GNE-781] | prevent the development of drug resistance | prevent the development of drug resistance | prevent the development of drug resistance | – | do not affect cell proliferation | – | do not affect cell proliferation | – | – | – | do not affect cell proliferation
COC(=O)N1c2ccc3c(nc(Cc4ccccc4)n3[C@H]3CCC[C@H](C(=O)O)C3)c2CC[C@@H]1C [FT-6876] | prevent the development of drug resistance | prevent the development of drug resistance | prevent the development of drug resistance | – | do not affect cell proliferation | – | do not affect cell proliferation | – | – | – | do not affect cell proliferation

Source: patent US12472179B2, “Combination of a CBP/p300 bromodomain inhibitor and a KRAS inhibitor for the treatment of cancer” (TOLREMO THERAPEUTICS AG, priority 2020, dated 2025)
